Measurements: patent US20150087605A1 (priority 2013, published 2015)
Like-named read-outs stand apart in the source and are kept apart here.

Tests used:
LF protease activity = LF protease activity (Bacillus anthracis, UniProt P15917); test: biochemical
[1] = tested on: RAW 264.7 macrophages treated with LeTx (PA and LF); test: cells; settings: Mus musculus, RAW264.7, read-out: IC50 Cell Viability
[2] = target: Anthrax Lethal Factor (LF) (Bacillus anthracis, UniProt P15917); test: biochemical; assay type: binding
[3] = tested on: RAW 264.7 macrophages treated with LeTx (PA and LF)
COX-2 = COX-2 (Homo sapiens, UniProt P35354); settings: read-out: IC50 COX-2; cited from earlier work
COX-1 = COX-1 (Homo sapiens, UniProt P23219); settings: read-out: IC50 COX-1; cited from earlier work
[4] = in vivo, cited from earlier work

LF protease activity, sequence (P15917 34-809 limits assumed): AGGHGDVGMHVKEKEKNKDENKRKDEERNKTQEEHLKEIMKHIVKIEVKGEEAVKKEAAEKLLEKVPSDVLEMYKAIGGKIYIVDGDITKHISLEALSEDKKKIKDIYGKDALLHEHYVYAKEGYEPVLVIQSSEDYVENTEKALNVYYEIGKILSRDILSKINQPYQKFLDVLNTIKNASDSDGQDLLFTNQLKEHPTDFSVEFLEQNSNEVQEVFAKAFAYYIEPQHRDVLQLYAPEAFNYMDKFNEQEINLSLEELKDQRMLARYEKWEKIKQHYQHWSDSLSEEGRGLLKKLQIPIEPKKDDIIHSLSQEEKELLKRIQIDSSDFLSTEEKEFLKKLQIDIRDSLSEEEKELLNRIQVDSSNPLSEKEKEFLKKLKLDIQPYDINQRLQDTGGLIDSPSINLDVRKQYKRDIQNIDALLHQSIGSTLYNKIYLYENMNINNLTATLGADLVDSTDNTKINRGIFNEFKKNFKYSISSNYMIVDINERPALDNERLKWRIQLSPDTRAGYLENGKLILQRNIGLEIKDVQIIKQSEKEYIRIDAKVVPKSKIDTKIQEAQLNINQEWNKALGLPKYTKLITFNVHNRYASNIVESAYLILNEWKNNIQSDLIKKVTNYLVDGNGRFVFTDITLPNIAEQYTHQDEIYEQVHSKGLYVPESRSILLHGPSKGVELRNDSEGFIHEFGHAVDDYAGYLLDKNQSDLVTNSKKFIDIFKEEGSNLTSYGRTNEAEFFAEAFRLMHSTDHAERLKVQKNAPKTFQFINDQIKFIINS
Anthrax Lethal Factor (LF), sequence (P15917 34-809 limits assumed): as above
COX-2, sequence (P35354 18-604): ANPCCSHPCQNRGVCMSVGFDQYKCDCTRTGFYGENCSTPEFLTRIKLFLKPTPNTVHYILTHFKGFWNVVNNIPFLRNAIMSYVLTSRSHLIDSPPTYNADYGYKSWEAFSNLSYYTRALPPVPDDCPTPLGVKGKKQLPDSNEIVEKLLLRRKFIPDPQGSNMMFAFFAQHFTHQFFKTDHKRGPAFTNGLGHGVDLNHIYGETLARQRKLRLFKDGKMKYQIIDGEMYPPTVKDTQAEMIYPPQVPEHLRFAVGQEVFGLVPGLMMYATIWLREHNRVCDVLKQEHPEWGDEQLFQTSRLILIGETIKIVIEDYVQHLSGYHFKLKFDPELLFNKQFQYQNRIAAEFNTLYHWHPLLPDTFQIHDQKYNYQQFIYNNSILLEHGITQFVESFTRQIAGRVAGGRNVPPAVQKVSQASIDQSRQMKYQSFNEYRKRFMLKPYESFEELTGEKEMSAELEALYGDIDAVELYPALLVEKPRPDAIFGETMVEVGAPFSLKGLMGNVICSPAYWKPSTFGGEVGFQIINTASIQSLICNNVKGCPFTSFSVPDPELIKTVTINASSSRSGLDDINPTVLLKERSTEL
COX-1, sequence (P23219 24-599): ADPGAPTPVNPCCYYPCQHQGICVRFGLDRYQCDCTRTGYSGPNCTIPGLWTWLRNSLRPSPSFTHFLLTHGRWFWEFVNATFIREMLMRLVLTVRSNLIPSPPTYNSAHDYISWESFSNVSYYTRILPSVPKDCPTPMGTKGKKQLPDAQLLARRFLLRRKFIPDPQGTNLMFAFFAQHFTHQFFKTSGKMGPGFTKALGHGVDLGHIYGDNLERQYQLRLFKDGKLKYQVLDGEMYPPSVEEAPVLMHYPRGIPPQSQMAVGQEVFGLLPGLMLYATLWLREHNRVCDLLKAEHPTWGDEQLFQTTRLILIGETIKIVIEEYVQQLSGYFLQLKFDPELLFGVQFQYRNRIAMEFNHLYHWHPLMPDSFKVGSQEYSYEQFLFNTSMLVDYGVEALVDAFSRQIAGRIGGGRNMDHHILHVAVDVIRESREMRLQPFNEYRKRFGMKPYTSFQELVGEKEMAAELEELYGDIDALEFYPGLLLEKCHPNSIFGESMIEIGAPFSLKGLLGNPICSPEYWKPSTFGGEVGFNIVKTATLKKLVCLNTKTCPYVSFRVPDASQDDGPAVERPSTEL

CCCCc1ccc(C(=O)O)nc1 [Fusaric Acid]
IC50 (LF protease activity; IC50 Protease Activity): 530 µM | IC50 [1]: 75.3 µM | Kd [2]: 4.5 µM

COc1ccc2cc([C@H](C)C(=O)O)ccc2c1 [Naproxen, (S)-(+)-6-Methoxy-α-methyl-2-naphthaleneacetic acid]
inhibition of LF protease activity (in words) (LF protease activity): failed to inhibit LF | inhibition of LeTx cytotoxicity (in words) [3]: failed to inhibit LeTx

CC1=C(CC(=O)O)c2cc(F)ccc2/C1=C\c1ccc([S+](C)[O-])cc1 (stereo not shown) [Sulindac]
IC50 (LF protease activity; IC50 Protease Activity): 173 µM | IC50 [1]: 31.7 µM | IC50 (COX-2): 25 µM | IC50 (COX-1): 41.3 µM | Kd [2]: 2.8 µM | mean half-life ([4]; 150 mg): 7.8 h | maximum concentration in human blood plasma [4]: 5.71 ± 2.17 µg/mL

CCCCc1ccc(C(=O)NCCCN=[N+]=[N-])nc1 [fusaric acid-N3]
IC50 (LF protease activity; IC50 (fluorogenic substrate assay)): 1100 µM | IC50 [1]: 164 µM

CCCCc1ccc(C(=O)NCCCn2cc(CNC(C)=O)nn2)nc1 [fusaric acid-bMR]
IC50 (LF protease activity; IC50 Protease Activity): 1.2 ± 0.36 µM | IC50 ([3]; mouse): 0.721 µM

CSc1ccc(/C=C2/C(C)=C(CC(=O)O)c3cc(F)ccc32)cc1 [sulindac sulfide, Sulindac Sulfide]
IC50 (LF protease activity; IC50 Protease Activity): 19.1 µM | IC50 [1]: 20.4 µM

CC1=C(CC(=O)O)c2cc(F)ccc2/C1=C\c1ccc(S(C)(=O)=O)cc1 [sulindac sulfone, Sulindac Sulfone]
IC50 (LF protease activity; read-out: IC50 Protease Activity): 185 µM | IC50 ([3]; read-out: IC50 Cell Viability): 56.6 µM

CC1=C(CC(=O)NCCCN=[N+]=[N-])c2cc(F)ccc2/C1=C\c1ccc([S+](C)[O-])cc1 (stereo not shown) [sulindac-N3]
IC50 (LF protease activity; IC50 Protease Activity): 420 µM | IC50 [1]: 90.1 µM
